Literature values in publication PMC12300650, “Development and Characterization of a New Oral Antileishmanial Bis(pyridine-2-Carboxamidine) Drug Through Innovative Dissolution Testing in Biorelevant Media Combined with Pharmacokinetic Studies” (Pharmaceutics, 2025).
Where two headings read alike, the source gives them in different places.

[1] = FaSSIF pH 6.5, ref Higashino et al., 2023 [23]
[2] = FaSSIF pH 6.8, ref Naing et al., 2024 [24]
[3] = Two state FaSSGF to FaSSIF, ref Arnold et al., 2011 [22]

| SMILES | Precipitation time [1] [min] | Supersaturation Time [1] [min] | Precipitation time [2] [min] | Supersaturation Time [2] [min] | Precipitation time [3] [min] | Supersaturation Time [3] [min] |
| --- | --- | --- | --- | --- | --- | --- |
| CC(=O)N1CCN(c2ccc(OCC3COC(Cn4ccnc4)(c4ccc(Cl)cc4Cl)O3)cc2)CC1 (centres unmarked) [Ketoconazole] | 30 to 60 | 30 |  |  |  |  |
| CC(C)c1nc(CN(C)C(=O)N[C@H](C(=O)N[C@@H](Cc2ccccc2)C[C@H](O)[C@H](Cc2ccccc2)NC(=O)OCc2cncs2)C(C)C)cs1 [Ritonavir] |  |  | 30 to 60 | 30 |  |  |
| OCCN(CCO)c1nc(N2CCCCC2)c2nc(N(CCO)CCO)nc(N3CCCCC3)c2n1 [Dipyridamole] | 60 to 120 | 30 |  |  | 20 to 180 | 20 |
